The source of these data is article PMC5218480 (PLoS ONE, 2017).

This experiment deals with MV-4-11 cells. Kind of experiment: Gene expression microarray analysis (Affymetrix PrimeView) and GSEA. The experiment is classed as cell-based, human. The arrangement: RFU PODN (11730768_x_at) / Fold change /veh PODN (11730768_x_at) / RFU LINC00158 (11744669_a_at) / Fold change /veh LINC00158 (11744669_a_at) / RFU DUSP10 (11751237_a_at) / Fold change /veh DUSP10 (11751237_a_at) / RFU ID3 (11757404_x_at) / Fold change /veh ID3 (11757404_x_at) / RFU PLEKHG5 (11737974_s_at) / Fold change /veh PLEKHG5 (11737974_s_at) / RFU LRRC4B (11730491_at) / Fold change /veh LRRC4B (11730491_at) / RFU GIMAP4 (11747438_a_at) / Fold change /veh GIMAP4 (11747438_a_at) / RFU KRT8 (11758183_x_at) / Fold change /veh KRT8 (11758183_x_at) / RFU CNN1 (11734310_a_at) / Fold change /veh CNN1 (11734310_a_at) / RFU VPS37D (11726825_at) / Fold change /veh VPS37D (11726825_at) / RFU C10orf10 (11716522_x_at) / Fold change /veh C10orf10 (11716522_x_at) / RFU KIR2DL2 /// KIR2DL4 /// KIR2DL5A /// KIR2DL5B /// KIR2DS1 /// KIR2DS2 /// KIR2DS3 /// KIR2DS4 /// KIR3DL3 /// KIR3DL3 /// KIR3DS1 (11738374_at) / Fold change /veh KIR2DL2 /// KIR2DL4 /// KIR2DL5A /// KIR2DL5B /// KIR2DS1 /// KIR2DS2 /// KIR2DS3 /// KIR2DS4 /// KIR3DL3 /// KIR3DL3 /// KIR3DS1 (11738374_at) / RFU C1QL1 (11718748_at) / Fold change /veh C1QL1 (11718748_at) / RFU TMPRSS4 (11747572_a_at) / Fold change /veh TMPRSS4 (11747572_a_at) / RFU HAMP (11756126_x_at) / Fold change /veh HAMP (11756126_x_at) / RFU RNFT2 (11725882_a_at) / Fold change /veh RNFT2 (11725882_a_at) / RFU NR4A2 (11747474_a_at) / Fold change /veh NR4A2 (11747474_a_at) / RFU ABCC12 (11746883_a_at) / Fold change /veh ABCC12 (11746883_a_at) / RFU TMEM136 (11760407_x_at) / Fold change /veh TMEM136 (11760407_x_at) / RFU CLDN22 /// WWC2 (11732394_at) / Fold change /veh CLDN22 /// WWC2 (11732394_at) / RFU HLA-DPB1 (11760878_x_at) / Fold change /veh HLA-DPB1 (11760878_x_at) / RFU SPINT1 (11716480_a_at) / Fold change /veh SPINT1 (11716480_a_at) / RFU GAP43 (11754022_s_at) / Fold change /veh GAP43 (11754022_s_at) / RFU A4GNT (11735810_at) / Fold change /veh A4GNT (11735810_at) / RFU PRB3 (11715151_x_at) / Fold change /veh PRB3 (11715151_x_at) / RFU TUBB4B (11761932_at) / Fold change /veh TUBB4B (11761932_at) / RFU CAPN14 (11732068_a_at) / Fold change /veh CAPN14 (11732068_a_at) / RFU TMCC2 (11721928_a_at) / Fold change /veh TMCC2 (11721928_a_at) / RFU IRGQ (11745062_a_at) / Fold change /veh IRGQ (11745062_a_at) / RFU FAM174B (11720279_a_at) / Fold change /veh FAM174B (11720279_a_at) / RFU TMPRSS4 (11748680_a_at) / Fold change /veh TMPRSS4 (11748680_a_at) / RFU FAM212B (11763350_a_at) / Fold change /veh FAM212B (11763350_a_at) / RFU PLEKHG5 (11743358_a_at) / Fold change /veh PLEKHG5 (11743358_a_at) / RFU ZSCAN30 (11745921_a_at) / Fold change /veh ZSCAN30 (11745921_a_at) / RFU CMKLR1 (11741424_a_at) / Fold change /veh CMKLR1 (11741424_a_at) / RFU LOC101060620 /// MAPK8IP1 (11723275_at) / Fold change /veh LOC101060620 /// MAPK8IP1 (11723275_at) / RFU SPTSSB (11747773_x_at) / Fold change /veh SPTSSB (11747773_x_at) / RFU PRSS12 (11739890_at) / Fold change /veh PRSS12 (11739890_at) / RFU BIN1 (11741810_x_at) / Fold change /veh BIN1 (11741810_x_at) / RFU WNT11 (11732464_a_at) / Fold change /veh WNT11 (11732464_a_at) / RFU C10orf10 (11716521_a_at) / Fold change /veh C10orf10 (11716521_a_at) / RFU C5orf56 (11738089_at) / Fold change /veh C5orf56 (11738089_at) / RFU CYB561 (11721691_x_at) / Fold change /veh CYB561 (11721691_x_at) / RFU ANKRD19P (11752326_a_at) / Fold change /veh ANKRD19P (11752326_a_at) / RFU OR2T12 /// OR2T33 /// OR2T8 (11738714_s_at) / Fold change /veh OR2T12 /// OR2T33 /// OR2T8 (11738714_s_at) / RFU VCAN (11748164_a_at) / Fold change /veh VCAN (11748164_a_at) / RFU JSRP1 (11732532_at) / Fold change /veh JSRP1 (11732532_at) / RFU KRTAP10-11 (11738290_x_at) / Fold change /veh KRTAP10-11 (11738290_x_at) / RFU MYO3A (11730013_a_at) / Fold change /veh MYO3A (11730013_a_at) / RFU EBF3 (11725865_a_at) / Fold change /veh EBF3 (11725865_a_at) / RFU CAMK2N1 (11719241_x_at) / Fold change /veh CAMK2N1 (11719241_x_at) / RFU C5orf56 (11738088_a_at) / Fold change /veh C5orf56 (11738088_a_at) / RFU OLFML3 (11715873_a_at) / Fold change /veh OLFML3 (11715873_a_at) / RFU LOC100653217 /// NTM (11731650_a_at) / Fold change /veh LOC100653217 /// NTM (11731650_a_at) / RFU MAPK11 (11762145_a_at) / Fold change /veh MAPK11 (11762145_a_at) / RFU FIZ1 (11724087_x_at) / Fold change /veh FIZ1 (11724087_x_at) / RFU OASL (11726364_x_at) / Fold change /veh OASL (11726364_x_at) / RFU SOX15 (11748057_x_at) / Fold change /veh SOX15 (11748057_x_at) / RFU CD79A (11719716_a_at) / Fold change /veh CD79A (11719716_a_at) / RFU HIST1H1D (11736915_at) / Fold change /veh HIST1H1D (11736915_at) / RFU CASKIN2 (11723855_a_at) / Fold change /veh CASKIN2 (11723855_a_at) / RFU LOC730098 (11760151_x_at) / Fold change /veh LOC730098 (11760151_x_at) / RFU OR4N2 (11742367_at) / Fold change /veh OR4N2 (11742367_at) / RFU PRRT2 (11749266_a_at) / Fold change /veh PRRT2 (11749266_a_at) / RFU SNX32 (11753110_a_at) / Fold change /veh SNX32 (11753110_a_at) / RFU CDHR5 (11726645_a_at) / Fold change /veh CDHR5 (11726645_a_at) / RFU RCAN1 (11760418_a_at) / Fold change /veh RCAN1 (11760418_a_at) / RFU FAM167A (11723789_a_at) / Fold change /veh FAM167A (11723789_a_at) / RFU FAM26E (11764081_at) / Fold change /veh FAM26E (11764081_at) / RFU ISYNA1 (11749810_s_at) / Fold change /veh ISYNA1 (11749810_s_at) / RFU ACY1 (11761880_at) / Fold change /veh ACY1 (11761880_at) / RFU 11764098_at / Fold change /veh 11764098_at / RFU SAMD14 (11745864_x_at) / Fold change /veh SAMD14 (11745864_x_at) / RFU NPB (11741838_a_at) / Fold change /veh NPB (11741838_a_at) / RFU TMPRSS6 (11731388_a_at) / Fold change /veh TMPRSS6 (11731388_a_at) / RFU KRTAP10-2 (11738614_at) / Fold change /veh KRTAP10-2 (11738614_at) / RFU ARHGAP8 /// PRR5-ARHGAP8 (11727945_x_at) / Fold change /veh ARHGAP8 /// PRR5-ARHGAP8 (11727945_x_at) / RFU KRTAP5-7 /// NADSYN1 (11734609_at) / Fold change /veh KRTAP5-7 /// NADSYN1 (11734609_at) / RFU RASL12 (11751679_a_at) / Fold change /veh RASL12 (11751679_a_at) / RFU CDKN2B (11736163_a_at) / Fold change /veh CDKN2B (11736163_a_at) / RFU PRF1 (11729649_at) / Fold change /veh PRF1 (11729649_at) / RFU, ZNF638 /// ZNF638-IT1 / Fold change vs veh, ZNF638 /// ZNF638-IT1 / RFU, PANK3 / Fold change vs veh, PANK3 / RFU, SH3YL1 / Fold change vs veh, SH3YL1 / RFU, ZEB2 / Fold change vs veh, ZEB2 / RFU, NRIP1 / Fold change vs veh, NRIP1 / RFU, PTTG1IP / Fold change vs veh, PTTG1IP / RFU, CAPN2 / Fold change vs veh, CAPN2 / RFU, MED14 / Fold change vs veh, MED14 / RFU, SNORA58 / Fold change vs veh, SNORA58 / RFU, C1orf63 / Fold change vs veh, C1orf63 / RFU, LRRFIP1 / Fold change vs veh, LRRFIP1 / RFU, NDUFAF7 / Fold change vs veh, NDUFAF7 / RFU, SLC12A2 / Fold change vs veh, SLC12A2 / RFU, IBTK / Fold change vs veh, IBTK / RFU, ESF1 / Fold change vs veh, ESF1 / Fold change vs veh, TMEM50B / RFU, TAOK1 / Fold change vs veh, TAOK1 / RFU, ACBD3 / Fold change vs veh, ACBD3 / RFU, TMA16 / Fold change vs veh, TMA16 / RFU, RWDD3 / Fold change vs veh, RWDD3 / RFU, BCAT1 / Fold change vs veh, BCAT1 / RFU, EDEM3 / Fold change vs veh, EDEM3 / RFU, TMEM33 / Fold change vs veh, TMEM33 / RFU, WDR75 / Fold change vs veh, WDR75 / RFU, AHCTF1 / Fold change vs veh, AHCTF1 / RFU, TFRC / Fold change vs veh, TFRC / RFU, ZDHHC17 / Fold change vs veh, ZDHHC17 / RFU, NOM1 / Fold change vs veh, NOM1 / RFU, ARL8B / Fold change vs veh, ARL8B / RFU, ZBTB11 / Fold change vs veh, ZBTB11 / RFU, TAMM41 / Fold change vs veh, TAMM41 / RFU, KIAA1704 /// LOC100996395 / Fold change vs veh, KIAA1704 /// LOC100996395 / RFU, ING1 / Fold change vs veh, ING1 / RFU, TRMT61B / Fold change vs veh, TRMT61B / RFU, FUBP3 / Fold change vs veh, FUBP3 / RFU, TP53 / Fold change vs veh, TP53 / RFU, TNKS2 / Fold change vs veh, TNKS2 / RFU, ZFP14 / Fold change vs veh, ZFP14 / RFU, ACTR2 / Fold change vs veh, ACTR2 / RFU, PPP3R1 / Fold change vs veh, PPP3R1 / RFU, PIK3R1 / Fold change vs veh, PIK3R1 / RFU, HNRNPA1 / Fold change vs veh, HNRNPA1 / RFU, RNF170 / Fold change vs veh, RNF170 / RFU, ZNF28 / Fold change vs veh, ZNF28 / RFU, RNGTT / Fold change vs veh, RNGTT / RFU, OGT / Fold change vs veh, OGT / RFU, BRD1 / Fold change vs veh, BRD1 / RFU, MARS / Fold change vs veh, MARS / RFU, ZNF655 / Fold change vs veh, ZNF655 / RFU, FAHD1 / Fold change vs veh, FAHD1 / RFU, BDP1 / Fold change vs veh, BDP1 / RFU, LRRCC1 / Fold change vs veh, LRRCC1 / RFU, ARID1A / Fold change vs veh, ARID1A / RFU, ZNF146 / Fold change vs veh, ZNF146 / RFU, ZNF330 / Fold change vs veh, ZNF330 / RFU, GPN3 / Fold change vs veh, GPN3 / RFU, C9orf123 / Fold change vs veh, C9orf123 / RFU, N4BP2L2 / Fold change vs veh, N4BP2L2 / RFU, ARFIP1 / Fold change vs veh, ARFIP1 / RFU, FAM179B / Fold change vs veh, FAM179B / RFU, BCL10 / Fold change vs veh, BCL10 / RFU, UHRF1BP1L / Fold change vs veh, UHRF1BP1L / RFU, BET1 / Fold change vs veh, BET1 / RFU, CNOT2 / Fold change vs veh, CNOT2 / RFU, ZNF268 / Fold change vs veh, ZNF268 / Fold change vs veh, ZNF507 / RFU, DGCR2 / Fold change vs veh, DGCR2 / RFU, WDSUB1 / Fold change vs veh, WDSUB1 / Fold change vs veh, HSP90B1 /// MIR3652 / RFU, ADSS / Fold change vs veh, ADSS / RFU, GK / Fold change vs veh, GK / RFU, ZNF148 / Fold change vs veh, ZNF148 / RFU, TAF9 / Fold change vs veh, TAF9 / RFU, SLC1A5 / Fold change vs veh, SLC1A5 / RFU, SLMO2 / Fold change vs veh, SLMO2 / RFU, ABCC4 / Fold change vs veh, ABCC4 / RFU, LOC101060439 /// RAP1B / Fold change vs veh, LOC101060439 /// RAP1B / RFU, RFX7 / Fold change vs veh, RFX7 / RFU, GTPBP10 / Fold change vs veh, GTPBP10 / RFU, CNEP1R1 / Fold change vs veh, CNEP1R1 / RFU, BIVM-ERCC5 /// ERCC5 / Fold change vs veh, BIVM-ERCC5 /// ERCC5 / RFU, ILF3 / Fold change vs veh, ILF3 / RFU 11762660_at / Fold change /veh 11762660_at / RFU VCAN (11757783_s_at) / Fold change /veh VCAN (11757783_s_at) / RFU DDX43 (11728927_at) / Fold change /veh DDX43 (11728927_at) / RFU KRT8 (11758188_x_at) / Fold change /veh KRT8 (11758188_x_at) / RFU NKD1 (11759106_at) / Fold change /veh NKD1 (11759106_at) / RFU SRD5A1 (11742802_a_at) / Fold change /veh SRD5A1 (11742802_a_at) / RFU TPSAB1 /// TPSB2 (11721975_s_at) / Fold change /veh TPSAB1 /// TPSB2 (11721975_s_at) / RFU GSTM3 (11746129_a_at) / Fold change /veh GSTM3 (11746129_a_at) / RFU IL23R (11737362_x_at) / Fold change /veh IL23R (11737362_x_at) / RFU TMEM51 (11727254_a_at) / Fold change /veh TMEM51 (11727254_a_at) / RFU PIWIL2 (11732686_x_at) / Fold change /veh PIWIL2 (11732686_x_at) / RFU ORM1 (11744905_x_at) / Fold change /veh ORM1 (11744905_x_at) / RFU CCDC152 (11743942_at) / Fold change /veh CCDC152 (11743942_at) / RFU ECM1 (11717891_a_at) / Fold change /veh ECM1 (11717891_a_at) / RFU IL23R (11748794_a_at) / Fold change /veh IL23R (11748794_a_at) / RFU TNFAIP8L3 (11732012_x_at) / Fold change /veh TNFAIP8L3 (11732012_x_at) / RFU MBOAT4 (11741988_at) / Fold change /veh MBOAT4 (11741988_at) / RFU 11764193_at / Fold change /veh 11764193_at / RFU TMEM53 (11763286_at) / Fold change /veh TMEM53 (11763286_at) / RFU MAGEB2 (11727129_at) / Fold change /veh MAGEB2 (11727129_at) / RFU TMEM200A (11744735_a_at) / Fold change /veh TMEM200A (11744735_a_at) / RFU CCDC152 (11751479_a_at) / Fold change /veh CCDC152 (11751479_a_at) / RFU FAM211A (11726209_a_at) / Fold change /veh FAM211A (11726209_a_at) / RFU RGS16 (11746705_a_at) / Fold change /veh RGS16 (11746705_a_at) / RFU VCAN (11755009_s_at) / Fold change /veh VCAN (11755009_s_at) / RFU RHOB (11743442_s_at) / Fold change /veh RHOB (11743442_s_at) / RFU RGS16 (11720943_a_at) / Fold change /veh RGS16 (11720943_a_at) / RFU RGS16 (11720944_at) / Fold change /veh RGS16 (11720944_at) / RFU, VPS4B / Fold change vs veh, VPS4B / RFU, CREB1 / Fold change vs veh, CREB1 / RFU, DNAJC13 / Fold change vs veh, DNAJC13 / RFU, GNAQ / Fold change vs veh, GNAQ / RFU, CDK5R1 / Fold change vs veh, CDK5R1 / RFU, ZRANB3 / Fold change vs veh, ZRANB3 / RFU, CUL4A / Fold change vs veh, CUL4A / RFU, CCNY / Fold change vs veh, CCNY / RFU, UFL1 / Fold change vs veh, UFL1 / RFU, COG3 / Fold change vs veh, COG3 / RFU, DIAPH2 / Fold change vs veh, DIAPH2 / RFU, SKA2 / Fold change vs veh, SKA2 / RFU, AFF3 / Fold change vs veh, AFF3 / RFU, LMF1 / Fold change vs veh, LMF1 / RFU, IPO11 / Fold change vs veh, IPO11 / RFU, DFFB / Fold change vs veh, DFFB / RFU, FOXP1 / Fold change vs veh, FOXP1 / RFU, CARD8 / Fold change vs veh, CARD8 / RFU, STRN3 / Fold change vs veh, STRN3 / RFU, ADK / Fold change vs veh, ADK / RFU, RASSF2 / Fold change vs veh, RASSF2 / RFU, WIPF1 / Fold change vs veh, WIPF1 / RFU, LARP1B / Fold change vs veh, LARP1B / RFU, RASA1 / Fold change vs veh, RASA1 / RFU, RB1 / Fold change vs veh, RB1 / RFU, PPFIA1 / Fold change vs veh, PPFIA1 / RFU, MAT2A / Fold change vs veh, MAT2A / RFU, CCT5 / Fold change vs veh, CCT5 / RFU, WDR92 / Fold change vs veh, WDR92 / RFU, CUX1 / Fold change vs veh, CUX1 / RFU, TTC7A / Fold change vs veh, TTC7A / RFU, TMEM135 / Fold change vs veh, TMEM135 / RFU, DEPTOR / Fold change vs veh, DEPTOR / RFU, CPM / Fold change vs veh, CPM / RFU, DNAJB6 / Fold change vs veh, DNAJB6 / RFU, CACNA2D3 / Fold change vs veh, CACNA2D3 / RFU, DTX4 / Fold change vs veh, DTX4 / RFU, TFCP2 / Fold change vs veh, TFCP2 / RFU, GMCL1 /// GMCL1P1 / Fold change vs veh, GMCL1 /// GMCL1P1 / RFU, AEBP2 / Fold change vs veh, AEBP2 / RFU, SNHG1 /// SNORD22 /// SNORD25 /// SNORD26 /// SNORD27 /// SNORD28 /// SNORD29 /// SNORD31 / Fold change vs veh, SNHG1 /// SNORD22 /// SNORD25 /// SNORD26 /// SNORD27 /// SNORD28 /// SNORD29 /// SNORD31 / Fold change (Aza/veh), C12orf56 (ProbeSet 11735607_a_at) / Fold change (ACY-1035/veh), C12orf56 (ProbeSet 11735607_a_at) / Fold change (Aza/veh), FGFR1OP (ProbeSet 11751329_s_at) / Fold change (ACY-1035/veh), FGFR1OP (ProbeSet 11751329_s_at) / Fold change (Aza/veh), VPS36 (ProbeSet 11739960_a_at) / Fold change (ACY-1035/veh), VPS36 (ProbeSet 11739960_a_at) / RFU SYPL1 (11715823_x_at) / Fold change /veh SYPL1 (11715823_x_at) / RFU IGFBP7 (11715501_s_at) / Fold change /veh IGFBP7 (11715501_s_at) / RFU REEP3 (11722064_at) / Fold change /veh REEP3 (11722064_at) / RFU IGLL1 (11728026_x_at) / Fold change /veh IGLL1 (11728026_x_at): dose or concentration left out as unconfirmed. The settings on record: MV-4-11 cells, 48 hours.

Structures are written as SMILES.

Take `Nc1ccc(-c2cccs2)cc1NC(=O)c1ccc2c(c1)cc(C1CC1)n2CCN1CCOCC1` [ACY-1035]: the “Fold change /veh PIWIL2 (11732686_x_at)” value is 0.84.
